Measured values from US5660842A, “Inhibition of helicobacter” (Bristol-Myers Squibb Company, priority 1995, dated 1997).
≈ marks a conversion by molar mass, not a printed value. Read-outs that look alike come from different tables or passages of the source.

Key:
[1] = system: Helicobacter pylori; assay: Viability of H. pylori after 1 hour in prototype nutritional compositions containing FFA or MG (Example 3, Table 6); format: cell-based, Helicobacter pylori (ATCC 43629); settings: for Change in viable cell number: 1 hour
[2] = system: Helicobacter pylori; assay: Bactericidal activity of MG and FFA of varying chain length (Example 4, FIG. 1); format: cell-based, Helicobacter pylori HP-4 (ATCC 43629); settings: FFA tested C4:0 to C17:0; 1 hour
[3] = system: Helicobacter pylori; assay: Minimal inhibitory concentration (MIC) for H. pylori (Example 5); format: cell-based; settings: Helicobacter pylori, read-out: MIC
[4] = system: Helicobacter pylori; format: cell-based, Helicobacter pylori (HP-2, HP-4, HP-5); settings: for Frequency of resistant mutants (number of spontaneous mutants): ~1 × 10^8 CFU
[5] = concentrations as low as two times the MIC

## CCCCCCCCCCCC(=O)O [Lauric Acid, lauric acid]
[1]; Nutrament (Formulation II), 20 mM
  Change in viable cell number: -0.42 LOG CFU/mL
[1]; Sustacal (Formulation I), 5 mM
  Change in viable cell number: 0.00 LOG CFU/mL
[1]; Sustacal (Formulation I), 10 mM
  Change in viable cell number: 0.05 LOG CFU/mL
[1]; Sustacal (Formulation I), 20 mM
  Change in viable cell number: -3.33 LOG CFU/mL
[1]; Ultracal (Formulation III), 5 mM
  Change in viable cell number: 0.33 LOG CFU/mL
[1]; Ultracal (Formulation III), 10 mM
  Change in viable cell number: -1.05 LOG CFU/mL
[1]; Ultracal (Formulation III), 20 mM
  Change in viable cell number: -3.96 LOG CFU/mL
[1]; lower levels than 20 mM
  Inhibition in nutritional compositions: not inhibitory
[2]
  Bactericidal activity for H. pylori: showed bactericidal activity
[3]; Table 7
  MIC: 50 µg/mL (≈ 250 µM)
[3]; preliminary studies
  MIC: ~50 µg/mL (≈ 250 µM)
[4]; [5]
  Frequency of resistance: < 1×10^-8
  Resistant variants of H. pylori: no resistant variants of H. pylori were found
[4]; strain 43529 (so in the source), 2 × MIC
  Frequency of resistant mutants (number of spontaneous mutants): < 1
[4]; strain 43529 (so in the source), 5 × MIC
  Frequency of resistant mutants (number of spontaneous mutants): < 1
[4]; strain 43529 (so in the source), 10 × MIC
  Frequency of resistant mutants (number of spontaneous mutants): < 1
[4]; strain 43579, 2 × MIC
  Frequency of resistant mutants (number of spontaneous mutants): < 1
[4]; strain 43579, 5 × MIC
  Frequency of resistant mutants (number of spontaneous mutants): < 1
[4]; strain 43579, 10 × MIC
  Frequency of resistant mutants (number of spontaneous mutants): < 1
[4]; strain 49503, 2 × MIC
  Frequency of resistant mutants (number of spontaneous mutants): < 1
[4]; strain 49503, 5 × MIC
  Frequency of resistant mutants (number of spontaneous mutants): < 1
[4]; strain 49503, 10 × MIC
  Frequency of resistant mutants (number of spontaneous mutants): < 1
